Measurements as given in ChEMBL document CHEMBL1201862, “PubChem BioAssay data set” (2004).
Active and inactive are the calls of the source.

How the values were obtained:
Protein skinhead-1 = target: T1, Protein skinhead-1 (Caenorhabditis elegans, UniProt P34707); format: functional
T1 sequence (P34707 whole entry): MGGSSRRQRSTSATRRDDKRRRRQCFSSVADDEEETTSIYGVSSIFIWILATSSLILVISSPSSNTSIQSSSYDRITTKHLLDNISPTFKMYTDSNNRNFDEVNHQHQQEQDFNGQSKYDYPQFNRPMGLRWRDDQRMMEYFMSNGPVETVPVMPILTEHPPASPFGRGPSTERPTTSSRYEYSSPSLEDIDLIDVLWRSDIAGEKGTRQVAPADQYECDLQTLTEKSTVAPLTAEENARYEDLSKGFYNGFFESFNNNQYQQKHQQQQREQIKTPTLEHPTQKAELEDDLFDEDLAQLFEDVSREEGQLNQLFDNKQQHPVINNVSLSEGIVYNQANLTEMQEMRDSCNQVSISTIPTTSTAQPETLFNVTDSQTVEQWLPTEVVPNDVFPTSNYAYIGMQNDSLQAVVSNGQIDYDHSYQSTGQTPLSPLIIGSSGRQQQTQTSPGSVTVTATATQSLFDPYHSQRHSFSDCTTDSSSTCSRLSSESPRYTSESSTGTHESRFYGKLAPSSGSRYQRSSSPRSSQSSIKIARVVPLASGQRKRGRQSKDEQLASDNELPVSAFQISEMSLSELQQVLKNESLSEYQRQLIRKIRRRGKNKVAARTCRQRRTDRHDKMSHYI

[1] = inducers of E-selectin gene expression, confirmation, orthogonal assay for E-selectin inducer project, cell-based, HUVEC, RT-qPCR, dry powder (AID 1117270); format: functional
[2] = target: T2, Oxysterols receptor LXR-beta (Homo sapiens, UniProt P55055); format: functional, cell-based;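 also: Cell-based luminescence dose-response assay of agonist activity at LXR, run as a confirmatory counterscreen to a daf-12 agonist screen; HEK293 cells with Gal4-LXR fusion and GAL4-driven luciferase reporter; agonist potency from rising luciferase signal of a Gal4-LXR reporter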
T2 sequence (P55055 whole entry): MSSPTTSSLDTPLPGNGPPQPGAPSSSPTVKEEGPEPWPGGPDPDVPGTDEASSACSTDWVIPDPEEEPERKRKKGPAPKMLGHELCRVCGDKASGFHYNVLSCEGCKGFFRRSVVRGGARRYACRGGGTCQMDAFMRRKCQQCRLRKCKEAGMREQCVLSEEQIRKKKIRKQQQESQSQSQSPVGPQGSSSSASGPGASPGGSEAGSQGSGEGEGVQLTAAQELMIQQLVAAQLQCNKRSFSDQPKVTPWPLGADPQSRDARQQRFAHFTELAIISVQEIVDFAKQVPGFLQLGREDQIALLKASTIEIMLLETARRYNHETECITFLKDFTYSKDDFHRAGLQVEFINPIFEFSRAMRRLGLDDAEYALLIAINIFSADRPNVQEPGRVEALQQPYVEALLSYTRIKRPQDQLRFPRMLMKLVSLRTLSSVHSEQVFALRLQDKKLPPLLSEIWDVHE

[3] = human group III sPLA2 inhibitors, dose response, biochemical, QFRET, IC50 (AID 743457);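 also: green fluorescence rise as the enzyme cleaves BODIPY PC-A2 in liposomes; potency for inhibition of the enzyme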
[4] = Late stage assay provider results from the probe development effort to identify selective inhibitors of heat shock protein 90 (HSP90): Absorbance-based cell proliferation assay in SKBR3 cells.; format: functional; settings: SK-BR-3
[5] = target: 1-phosphatidylinositol 4,5-bisphosphate phosphodiesterase beta-3 (Homo sapiens, UniProt Q01970); assay: Fluorescence-based biochemical high throughput dose response assay to identify inhibitors of phospholipase C isozymes (PLC-B3).
[6] = target: T3, Calpain-2 catalytic subunit (Sus scrofa, UniProt P43367); assay: pig calpain II inhibitor potency, dose response, biochemical, fluorogenic peptide substrate (AID 1420); format: functional
T3 sequence (P43367 whole entry): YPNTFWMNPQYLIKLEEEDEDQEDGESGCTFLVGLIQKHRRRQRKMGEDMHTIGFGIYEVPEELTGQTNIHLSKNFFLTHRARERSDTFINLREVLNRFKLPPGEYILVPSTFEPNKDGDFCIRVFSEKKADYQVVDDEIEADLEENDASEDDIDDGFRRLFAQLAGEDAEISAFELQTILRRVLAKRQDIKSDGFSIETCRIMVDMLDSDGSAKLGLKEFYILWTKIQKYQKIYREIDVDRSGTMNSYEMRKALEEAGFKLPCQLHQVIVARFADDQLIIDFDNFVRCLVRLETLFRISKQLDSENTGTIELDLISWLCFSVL

H4 = assay: Luminescence Cell-Based Dose Response HTS to Identify Activators of 5'UTR Stem-Loop Driven Prion Protein mRNA Translation in H4 Neuroglioblastoma Cells. [Related pubchem assays: 1829 (Project Summary), 1814 (Primary HTS)]; format: functional; settings: Homo sapiens
[7] = target: 1-phosphatidylinositol 4,5-bisphosphate phosphodiesterase gamma-1 (Homo sapiens, UniProt P19174); assay: Counterscreen for inhibitors of phospholipase C isozymes (PLC-B3): Fluorescence-based biochemical high throughput dose response assay to identify inhibitors of phospholipase C isozymes (PLC-gamma1).
[8] = inhibitors of clade B AD8 Env fusion, dose response, cell-based, cherry-pick (AID 652062); format: functional;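 also: luciferase signal from cell-cell fusion driven by HIV-1 clade B AD8 Env; potency is for inhibitors of fusion seen as a drop in luminescence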
[9] = Luminescence Cell-Based Dose Confirmation HTS to Identify Activators of 5'UTR Stem-Loop Driven Alpha-Synuclein mRNA Translation in H4 Neuroglioblastoma Cells. [Related pubchem assays: 1829 (Project Summary), 1814 (Primary HTS)]; format: functional
[10] = Luminescence Cell-Based Dose Response HTS to Identify Activators of Luciferase Translation or Activity in H4 […] Cells. [Related pubchem assays: 1829 (Project Summary), 1814 (Primary HTS)]; format: functional
[11] = inhibitors of HIV Env-driven cell fusion, dose response, cherry-pick (AID 652057); format: functional, cell-based
[12] = target: COUP transcription factor 2 (Homo sapiens, UniProt P24468); assay: Luminescence-based cell-based high throughput dose response assay to identify inhibitors of COUP-TFII (NR2F2).; format: functional;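 also: HEK293 cells transiently cotransfected with COUP-TFII expression vector and reporter; luciferase reporter luminescence driven by COUP-TFII from the pX2-168 reporter plasmid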
[13] = T. b. rhodesiense proliferation inhibition, dose response, STIB900 strain, plate reader, cherry pick (AID 651893); format: functional, cell-based; settings: Trypanosoma brucei
[14] = T. cruzi intracellular amastigote growth inhibition, dose response, imaging, CA-I/72 strain, bovine embryo skeletal muscle, dry powder (AID 651885); format: functional, cell-based
[15] = T. b. rhodesiense proliferation inhibition, dose response, STIB900 strain, plate reader, dry powder (AID 651894); format: functional, cell-based
[16] = cytotoxicity in L-6 rat myocytes, dose response, cytotoxicity control, cell-based, plate reader, cherry-pick (AID 651896); format: functional
[17] = T. cruzi amastigote growth inhibition, dose response, Tulahuen strain, L-6 host cells, dry powder (AID 651890); format: functional, cell-based
[18] = L. donovani amastigote growth inhibition, dose response, axenic amastigotes, plate reader, dry powder (AID 651892); format: functional, cell-based
[19] = L-6 rat myoblast cytotoxicity, dose response, counter-screen for T. cruzi inhibitor project, cell-based, plate reader, dry powder (AID 651895); format: functional
[20] = T. cruzi growth inhibition in host cells, dose response, cell-based, plate reader, dry powder, set 2 (AID 652275); format: functional
[21] = growth inhibition of intracellular T. cruzi, dose response, cell-based, plate reader, dry powder samples (AID 651845); format: functional
[22] = L. donovani amastigote growth inhibition, dose response, axenic amastigotes, plate reader, cherry pick (AID 651891); format: functional, cell-based; settings: Leishmania donovani
[23] = intracellular Trypanosoma cruzi inhibitors in host cells – cell-based, plate reader, cherry-pick samples, set 3, dose response (AID 651818); format: functional;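 also: compounds incubated with infected cells for about four days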
[24] = P. falciparum blood-stage growth inhibition, dose response, NF54 strain, plate reader, dry powder (AID 651889); format: functional, cell-based
Cryptococcus neoformans = assay: PubChem AID 686997; format: functional, organism-based
HeLa = assay: HeLa cell cytotoxicity, dose response, cytotoxicity control, ATP luminescence, cherry-pick samples (AID 687004); format: functional, cell-based; settings: Homo sapiens

Sequence of 1-phosphatidylinositol 4,5-bisphosphate phosphodiesterase beta-3 (Q01970 whole entry): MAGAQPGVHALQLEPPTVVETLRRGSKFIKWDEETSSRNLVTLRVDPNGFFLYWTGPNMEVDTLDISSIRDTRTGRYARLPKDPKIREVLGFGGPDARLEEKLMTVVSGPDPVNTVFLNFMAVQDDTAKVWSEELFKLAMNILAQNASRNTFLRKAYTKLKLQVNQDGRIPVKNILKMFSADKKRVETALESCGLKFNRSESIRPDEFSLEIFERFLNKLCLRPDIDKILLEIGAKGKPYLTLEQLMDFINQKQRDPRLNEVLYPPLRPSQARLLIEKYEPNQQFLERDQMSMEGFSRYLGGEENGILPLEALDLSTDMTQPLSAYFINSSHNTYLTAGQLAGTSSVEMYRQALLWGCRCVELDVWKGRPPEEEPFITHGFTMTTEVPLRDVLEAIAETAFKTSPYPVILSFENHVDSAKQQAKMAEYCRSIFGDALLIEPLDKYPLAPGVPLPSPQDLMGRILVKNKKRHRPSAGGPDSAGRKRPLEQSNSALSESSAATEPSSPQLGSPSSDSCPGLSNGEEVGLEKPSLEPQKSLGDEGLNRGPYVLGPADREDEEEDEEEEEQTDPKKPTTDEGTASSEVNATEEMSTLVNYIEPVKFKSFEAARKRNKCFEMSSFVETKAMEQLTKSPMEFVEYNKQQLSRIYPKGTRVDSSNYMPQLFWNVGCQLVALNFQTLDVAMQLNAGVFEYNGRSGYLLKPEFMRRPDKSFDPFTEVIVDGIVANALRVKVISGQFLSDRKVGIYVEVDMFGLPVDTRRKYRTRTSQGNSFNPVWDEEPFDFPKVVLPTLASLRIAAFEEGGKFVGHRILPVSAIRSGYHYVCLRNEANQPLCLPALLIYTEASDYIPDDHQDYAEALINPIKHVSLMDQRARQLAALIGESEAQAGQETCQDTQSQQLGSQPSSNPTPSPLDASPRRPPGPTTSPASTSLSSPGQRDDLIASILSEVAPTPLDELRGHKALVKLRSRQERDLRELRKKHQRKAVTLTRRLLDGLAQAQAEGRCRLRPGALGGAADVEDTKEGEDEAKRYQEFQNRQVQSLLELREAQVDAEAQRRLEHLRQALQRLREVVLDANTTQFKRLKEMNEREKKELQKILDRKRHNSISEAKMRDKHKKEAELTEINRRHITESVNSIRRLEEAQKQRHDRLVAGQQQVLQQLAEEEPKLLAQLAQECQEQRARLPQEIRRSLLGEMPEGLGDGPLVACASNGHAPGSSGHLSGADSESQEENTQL
Sequence of 1-phosphatidylinositol 4,5-bisphosphate phosphodiesterase gamma-1 (P19174 whole entry, the tested form may be a part): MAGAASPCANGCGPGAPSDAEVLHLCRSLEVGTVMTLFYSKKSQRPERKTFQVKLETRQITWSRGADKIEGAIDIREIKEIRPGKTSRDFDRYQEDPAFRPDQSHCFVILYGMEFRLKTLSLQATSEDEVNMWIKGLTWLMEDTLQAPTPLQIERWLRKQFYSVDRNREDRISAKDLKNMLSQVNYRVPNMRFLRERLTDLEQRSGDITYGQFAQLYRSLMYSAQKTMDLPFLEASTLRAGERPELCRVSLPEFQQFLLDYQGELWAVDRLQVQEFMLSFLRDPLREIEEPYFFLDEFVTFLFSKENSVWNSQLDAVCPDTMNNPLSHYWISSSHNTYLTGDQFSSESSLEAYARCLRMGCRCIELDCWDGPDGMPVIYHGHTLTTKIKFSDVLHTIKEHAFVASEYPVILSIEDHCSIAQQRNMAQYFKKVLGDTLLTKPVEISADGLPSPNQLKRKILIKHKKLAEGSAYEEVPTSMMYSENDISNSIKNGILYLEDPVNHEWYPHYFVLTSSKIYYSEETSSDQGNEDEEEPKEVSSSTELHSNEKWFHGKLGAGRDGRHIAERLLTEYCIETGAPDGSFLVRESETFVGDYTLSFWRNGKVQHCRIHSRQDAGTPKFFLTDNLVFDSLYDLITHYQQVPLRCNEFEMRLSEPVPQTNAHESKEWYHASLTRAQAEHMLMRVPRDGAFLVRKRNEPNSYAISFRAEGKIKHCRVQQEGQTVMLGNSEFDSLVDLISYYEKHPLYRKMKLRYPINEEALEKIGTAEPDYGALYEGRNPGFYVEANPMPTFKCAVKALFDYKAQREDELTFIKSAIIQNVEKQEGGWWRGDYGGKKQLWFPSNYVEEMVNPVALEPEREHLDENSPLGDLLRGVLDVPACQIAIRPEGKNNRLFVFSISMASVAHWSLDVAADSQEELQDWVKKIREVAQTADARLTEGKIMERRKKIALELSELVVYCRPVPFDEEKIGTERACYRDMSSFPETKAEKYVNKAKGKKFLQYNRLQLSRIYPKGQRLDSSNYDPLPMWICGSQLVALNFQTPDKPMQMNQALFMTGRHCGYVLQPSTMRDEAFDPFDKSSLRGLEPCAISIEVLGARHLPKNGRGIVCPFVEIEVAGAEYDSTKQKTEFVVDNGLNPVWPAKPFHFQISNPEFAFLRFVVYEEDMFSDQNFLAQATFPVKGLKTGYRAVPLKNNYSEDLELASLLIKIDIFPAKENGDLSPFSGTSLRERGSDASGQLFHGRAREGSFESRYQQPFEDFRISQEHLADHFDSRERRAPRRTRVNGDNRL
Sequence of COUP transcription factor 2 (P24468 whole entry): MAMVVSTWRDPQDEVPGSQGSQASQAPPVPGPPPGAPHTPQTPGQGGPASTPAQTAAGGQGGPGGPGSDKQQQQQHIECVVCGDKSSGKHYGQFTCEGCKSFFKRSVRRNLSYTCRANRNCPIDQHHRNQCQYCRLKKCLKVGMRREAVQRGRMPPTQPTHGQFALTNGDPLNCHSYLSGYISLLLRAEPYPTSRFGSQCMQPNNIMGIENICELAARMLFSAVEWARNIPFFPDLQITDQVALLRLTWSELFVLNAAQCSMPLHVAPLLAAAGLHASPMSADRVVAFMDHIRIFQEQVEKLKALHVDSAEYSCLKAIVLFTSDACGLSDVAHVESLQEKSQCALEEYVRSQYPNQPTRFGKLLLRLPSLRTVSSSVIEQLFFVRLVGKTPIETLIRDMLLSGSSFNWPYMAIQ

Cc1cccc(NC(=O)NCc2ccc3c(c2)cc(C)n3C)c1
IC50 (Protein skinhead-1): > 100 µM (inactive) | AC50 [1]: 0.306 µM (active)

CCCC#Cc1ccc2c(c1)COc1c3ccccc3nn1-2
EC50 (cells): > 67.5 µM (inactive) | EC50 [2]: > 67.5 µM (inactive)

O=C(NNC(=S)Nc1ccccc1)NNC(=S)Nc1ccccc1
IC50 [3]: > 122 µM (inactive)

COC(=O)c1ccc2nc(NC(=O)C3CCCCC3)sc2c1
IC50 [4]: 51.6 µM (inactive)

O=C(Nc1nc(COc2ccccc2)cs1)C12CC3CC(CC(C3)C1)C2
IC50 [5]: > 123 µM (inactive) | IC50 [6]: 2.03 µM (not active) | EC50 (H4): 19 µM (active) | IC50 [7]: > 123 µM (inactive) | AC50 [8]: 34.9 µM (active) | EC50 [9]: 26.8 µM (active) | EC50 [10]: 20.7 µM (active) | AC50 [11]: 49.8 µM (active)

CC1(C)CC(=O)C=C(c2ccc(-c3cnc4ccccc4c3)cc2)C1=O
IC50 [12]: 4.87 µM (active)

C[C@H](CO)N1C[C@H](C)[C@H](CN(C)Cc2ccc(Oc3ccccc3)cc2)Oc2c(NC(=O)c3ccncc3)cccc2C1=O
IC50 [13]: 18.5 µM (inactive) | IC50 [14]: 0.0098 µM (active) | IC50 [15]: 22.2 µM (inactive) | IC50 [16]: 52.2 µM (active) | IC50 [17]: 0.0755 µM (active) | IC50 [18]: > 100 µM (inactive) | IC50 [19]: 54.7 µM (inactive) | AC50 [20]: 0.00127 µM (active) | AC50 [21]: 0.0158 µM (active) | IC50 [22]: > 100 µM (inactive) | AC50 [23]: 0.075 µM (active) | IC50 [24]: 2.32 µM (inactive)

COC(=O)C1=C(C)N(CC(C)C)C(=S)NC1c1ccc(Cl)cc1 (stereo not given)
AC50 (Cryptococcus neoformans): 24 µM (active) | AC50 (Cryptococcus neoformans; Cryptococcus neoformans): 36.5 µM (active) | AC50 (HeLa): > 60 µM (inactive)
